Laboratory results: PMC11048566, “The Development of a Regulator of Human Serine Racemase for N-Methyl-D-aspartate Function” (Biomedicines, 2024)
Read-outs that look alike come from different tables or passages of the source.

What was measured:
[1] = biological target: D-amino acid oxidase (DAAO) (Homo sapiens, UniProt P14920); assay: DAAO enzymatic assay; type: biochemical; settings: 5 mM D-serine, pH 8.5
Method: A reaction mixture for the DAAO assay, with a final volume of 100 µL was made with 1 µL 2 times serially diluted α12G (4 µM to 7.8 nM), 45 µM FAD, 10 units of HRP, 60 ng DAAO, 10 mM Amplex Red^TM, 5 mM D-serine, and 100 mM Tris HCl (pH = 8.5). All reactions were performed in duplicates. The fluorescence was detected by a fluorometric meter (TECAN Infinite 200). The racemization percentage was calculated as follows: activity % = (Fsample, 20 min − Fsample, 0 min)/(Fblank, 20 min − Fblank, 0 min) × 100%.

[2] = biological target: T1, human serine racemase (hSR) (Homo sapiens, UniProt Q9GZT4); assay: Two-step enzymatic assay of hSR racemization (hSR, then DAAO/HRP/Amplex Red); type: biochemical; settings: 0.25 mM ATP
T1 construct: 6xHis (C); made in house; host or cells: E. coli BL21 (pET42b-hSR)
T1 sequence (Q9GZT4 1-340): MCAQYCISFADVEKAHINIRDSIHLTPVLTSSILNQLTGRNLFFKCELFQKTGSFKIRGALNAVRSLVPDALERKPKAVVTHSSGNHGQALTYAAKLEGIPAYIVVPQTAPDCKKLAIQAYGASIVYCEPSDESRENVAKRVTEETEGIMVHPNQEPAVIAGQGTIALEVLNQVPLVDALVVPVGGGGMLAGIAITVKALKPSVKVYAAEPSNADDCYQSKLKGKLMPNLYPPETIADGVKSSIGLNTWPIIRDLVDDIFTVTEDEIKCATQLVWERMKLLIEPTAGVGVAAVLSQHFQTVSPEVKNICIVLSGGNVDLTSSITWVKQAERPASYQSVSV
Method: This assay was designed by the formation of D-serine by hSR and the oxidation of D-serine by D-amino acid oxidase (DAAO) and horseradish peroxidase (HRP) with the peroxidase substrate Amplex Red^TM (10-acetyl-3,7-dihydroxyphenoxazine) (Thermo Fisher Scientific, Lagoas Park, Porto Salvo, Portugal). The hSR activity assay reaction was carried out in 100 mM HEPES buffer, pH 8.0, containing 2.4 µg of hSR protein, 50 µM PLP, 1 mM MgCl2, 0.25 mM ATP, 400 mM L-serine, and 2 times serially diluted α12G (8 mM to 0.2 µM). Compound-free wells were used as blank controls in the assay. All reactions were performed in duplicates. The reaction mixtures were incubated at 37 °C for 4 h. The reaction was stopped by heating the reaction mixtures at 95 °C for 10 min and storage at 4 °C. A reaction mixture for the second-step enzymatic assay, DAAO assay, with a final volume of 100 µL was made with a 10 µL sample from hSR assay, 45 µM FAD, 10 units of HRP, 60 ng DAAO, 10 mM lead acetate, 10 mM Amplex Red^TM, and 100 mM Tris HCl (pH = 8.5). Lead acetate was used to conjugate α12G as the latter would inhibit the DAAO function in the fluorometric assay, leading to an […] of the effects of α12G on hSR. The fluorescence was detected by the TECAN Infinite 200 Microplate Reader (GMI, MN, USA). The racemization percentage was calculated as follows: racemization % = (Fsample, 20 min − Fsample, 0 min)/(Fblank, 20 min − Fblank, 0 min) × 100%. […] The two-step enzymatic assay described in Section 2.3 was designed by the formation of D-serine by hSR and the consequent oxidation of D-serine by DAAO. The inhibition of DAAO, which also degrades D-serine, by α12G will lead to overestimating the effects of racemization by hSR. […] Therefore, lead acetate was applied to conjugate α12G for the determination of racemization. […] On the contrary, when the concentration of α12G is higher than 2 mM, the racemization activity of hSR is inhibited.

[3] = system: MK-801-induced memory impairment; assay: Novel object recognition test in MK-801-treated mice; type: in vivo, C57BL/6J male mice; settings: 10 mg/kg oral, 0.2 mg/kg MK-801 IP; p < 0.01, n = 8
Method: For behavioral studies, α12G was dissolved in 35% PEG-400 and administrated by oral gavage 20 min prior to the MK-801 insult. MK-801 (Sigma-Aldrich, St. Louis, MO, USA) was administrated via intraperitoneal (IP) injection 20 min prior to the behavioral tests, with the dosage of 0.2 mg/kg for the open field test and novel object recognition test and 0.3 mg/kg for the prepulse inhibition test.
C57BL/6J male mice were randomly assigned into five groups, 6–8 mice per group, (1) saline control, (2) MK-801, (3) 1 mg/kg α12G + MK-801, (4) 3 mg/kg α12G + MK-801, and (5) 10 mg/kg α12G + MK-801. A novel object recognition test (NOR) was conducted in a square chamber (40 × 40 × 40 cm) under 15–20 lux light intensity, and a digital camera was used to record the behaviors. The test consisted of two sessions. In session I, mice were allowed to explore the chamber with two identical objects (yellow square Lego bricks) for 5 min and were then moved to the home cage for 5 min. In session II, mice were allowed to explore the chamber with one object kept the same (familiar object) and the other replaced with a novel object (blue circular bottle cap) for 10 min. The interaction of mice with both the objects (familiar vs. novel) was recorded, and the discrimination index was calculated with the following formula:Discrimination index = Time (novel object) − Time (familiar object)/Total exploring time

Chain of D-amino acid oxidase (DAAO) (P14920 whole entry, species assumed): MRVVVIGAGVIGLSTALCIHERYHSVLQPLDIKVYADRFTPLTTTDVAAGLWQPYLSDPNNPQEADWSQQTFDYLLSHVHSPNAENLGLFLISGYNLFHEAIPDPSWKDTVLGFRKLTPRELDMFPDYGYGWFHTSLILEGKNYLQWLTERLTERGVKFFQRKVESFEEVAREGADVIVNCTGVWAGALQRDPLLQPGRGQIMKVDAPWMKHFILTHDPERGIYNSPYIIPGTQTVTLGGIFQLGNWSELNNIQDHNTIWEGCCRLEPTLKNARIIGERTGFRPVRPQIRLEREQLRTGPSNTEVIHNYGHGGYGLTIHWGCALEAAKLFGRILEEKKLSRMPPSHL

IC50 [1]: 0.16 µM
Concentration above which hSR racemization activity is inhibited [2]: higher than 2 mM
EC100 (concentration of highest racemization activity) ([2]; 400 mM L-serine, lead acetate in second step): 31.25 µM
Enhancement of hSR racemization ([2]; maximum vs compound-free): about 8 fold
EC50 ([2]; falling limb of inverted U-shape curve, read-out: EC50 on hSR racemization (progressively inhibiting racemization)): 221 µM
EC50 ([2]; rising limb of inverted U-shape curve, read-out: EC50 on hSR racemization (favoring racemization)): 8.82 µM
Structure (SMILES): O=C(Oc1cc(C(=O)Oc2cc(C(=O)O[C@H]3OC[C@@H](OC(=O)c4cc(O)c(O)c(OC(=O)c5cc(O)c(O)c(OC(=O)c6cc(O)c(O)c(O)c6)c5)c4)[C@H](OC(=O)c4cc(O)c(O)c(OC(=O)c5cc(O)c(O)c(OC(=O)c6cc(O)c(O)c(O)c6)c5)c4)[C@H]3OC(=O)c3cc(O)c(O)c(OC(=O)c4cc(O)c(O)c(OC(=O)c5cc(O)c(O)c(O)c5)c4)c3)cc(O)c2O)cc(O)c1O)c1cc(O)c(O)c(O)c1 [α12G, (2R,3R,4S,5R)-tetrahydro-2H-pyran-2,3,4,5-tetrayl tetrakis(3-((3,4-dihydroxy-5-((3,4,5-trihydroxybenzoyl)oxy)benzoyl)ox)-4,5-dihydroxybenzoate)]
Effect on MK-801-induced memory impairment (novel object recognition) [3]: attenuated this MK-801-induced memory impairment
